Experimental findings from US8609636B2, “Oxime derivatives as sphingosine 1-phosphate (S1P) receptor modulators” (Allergan, Inc., priority 2010, dated 2013) are described below.

The assay deals with T1, human S1P1 receptor (Homo sapiens, UniProt P21453).
T1 construct: expressed in transfected cells; membranes used
T1 sequence (P21453 whole entry): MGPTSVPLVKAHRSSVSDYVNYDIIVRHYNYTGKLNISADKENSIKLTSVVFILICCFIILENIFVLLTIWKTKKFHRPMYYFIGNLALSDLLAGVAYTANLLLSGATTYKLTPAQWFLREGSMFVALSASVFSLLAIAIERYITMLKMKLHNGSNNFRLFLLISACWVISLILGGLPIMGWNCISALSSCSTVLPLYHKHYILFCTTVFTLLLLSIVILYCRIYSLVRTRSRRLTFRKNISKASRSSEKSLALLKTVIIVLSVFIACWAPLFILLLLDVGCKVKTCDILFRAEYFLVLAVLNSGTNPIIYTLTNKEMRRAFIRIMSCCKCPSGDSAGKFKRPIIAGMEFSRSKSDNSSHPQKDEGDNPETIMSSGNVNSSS
Put plainly: GTP γ35S binding assay for S1P1 activity. The assay is classed as biochemical. To be noted: activity potency, S1P1 receptor from GTP γ35S binding; membranes, test range 0.08 to 5,000 nM. The procedure:
Compounds were synthesized and tested for S1P1 activity using the GTP γ^35S binding assay. These compounds may be assessed for their ability to activate or block activation of the human S1P1 receptor in cells stably expressing the S1P1 receptor.
GTP γ^35S binding was measured in the medium containing (mM) HEPES 25, pH 7.4, MgCl2 10, NaCl 100, dithitothreitol 0.5, digitonin 0.003%, 0.2 nM GTP γ^35S, and 5 μg membrane protein in a volume of 150 μl. Test compounds were included in the concentration range from 0.08 to 5,000 nM unless indicated otherwise. Membranes were incubated with 100 μM 5′-adenylylimmidodiphosphate for 30 min, and subsequently with 10 μM GDP for 10 min on ice. Drug solutions and membrane were mixed, and then reactions were initiated by adding GTP γ^35S and continued for 30 min at 25° C. Reaction mixtures were filtered over Whatman GF/B filters under vacuum, and washed three times with 3 mL of ice-cold buffer (HEPES 25, pH7.4, MgCl2 10 and NaCl 100). Filters were dried and mixed with scintillant, and counted for ^35S activity using a β-counter. Agonist-induced GTP γ^35S binding was obtained by subtracting that in the absence of agonist. Binding data were analyzed using a non-linear regression method. In case of antagonist assay, the reaction mixture contained 10 nM S1P in the presence of test antagonist at concentrations ranging from 0.08 to 5000 nM.
Background: GTPγS resists hydrolysis and so accumulates on activated G proteins.
On to `C/C(=N\OCC(Cc1ccc(C)c(C)c1)c1cccc(C)c1)c1ccc(CNCCC(=O)O)cc1` (stereo not shown) [Compound 1, 3-[(4-{(1E)-N-[3-(3,4-dimethylphenyl)-2-(3-methylphenyl)propoxy]ethanimidoyl}benzyl)amino]propanoic acid], for which the half-maximal effective concentration (EC50) (commonly the concentration that produces a half-maximal response) amounted to 43.2 nM.

Compound `C/C(=N\OCC(Cc1ccc(C)c(C)c1)c1cccc(C)c1)c1ccc(CNCCCP(=O)(O)O)cc1` (stereo not shown) [Compound 2, {3-[(4-{(1E)-N-[3-(3,4-dimethylphenyl)-2-(3-methylphenyl)propoxy]ethanimidoyl}benzyl)amino]propyl}phosphonic acid] showed an EC50 of 23.4 nM.

In turn, `C/C(=N\OCC(Cc1ccc(C)c(C)c1)c1cccc(Cl)c1)c1ccc(CNCCC(=O)O)cc1` (stereo not shown) [Compound 3, 3-[(4-{(1E)-N-[2-(3-chlorophenyl)-3-(3,4-dimethylphenyl)propoxy]ethanimidoyl}benzyl)amino]propanoic acid] yielded an EC50 of 15.6 nM.

Compound `C/C(=N\OCC(Cc1ccc(C)c(C)c1)c1cccc(Cl)c1)c1ccc(CNCCCP(=O)(O)O)cc1` (stereo not shown) [Compound 4, {3-[(4-{(1E)-N-[2-(3-chlorophenyl)-3-(3,4-dimethylphenyl)propoxy]ethanimidoyl}benzyl)amino]propyl}phosphonic acid] yielded a 50% effective concentration (EC50) of 3.51 nM.

With `C/C(=N\OCc1ccc(CNCCCP(=O)(O)O)cc1)C(Cc1ccc(C)c(C)c1)c1cccc(Cl)c1` (stereo not shown) [Compound 5, [3-({4-[({[(1E)-2-(3-chlorophenyl)-3-(3,4-dimethylphenyl)-1-methylpropylidene]amino}oxy)methyl]benzyl}amino)propyl]phosphonic acid], a half-maximal effect (EC50) was put at 2.2 nM.

`C/C(=N\OCc1ccc(CNCCCP(=O)(O)O)cc1)C(Cc1ccc(C)c(C)c1)c1cc(F)cc(F)c1` (stereo not shown) [Compound 6, [3-({4-[({[(1E)-2-(3,5-difluorophenyl)-3-(3,4-dimethylphenyl)-1-methylpropylidene]amino}oxy)methyl]benzyl}amino)propyl]phosphonic acid] displayed a concentration giving a half-maximal response (EC50) of 0.88 nM.

The compound `C/C(=N\OCc1ccc(CNCCC(=O)O)cc1)C(Cc1ccc(C)c(C)c1)c1cc(F)cc(F)c1` (stereo not shown) [Compound 7, 3-({4-[({[(1E)-2-(3,5-difluorophenyl)-3-(3,4-dimethylphenyl)-1-methylpropylidene]amino}oxy)methyl]benzyl}amino)propanoic acid] yielded an EC50 of 6.8 nM.

Compound `C/C(=N\OCc1ccc(CNCCCP(=O)(O)O)cc1)C(Sc1ccc(C)c(C)c1)c1cccc(Cl)c1` (stereo not shown) [Compound 10, {3-[(4-{[({(1E)-2-(3-chlorophenyl)-2-[(3,4-dimethylphenyl)thio]-1-methylethylidene}amino)oxy]methyl}benzyl)amino]propyl}phosphonic acid] came in with a half-maximal effective concentration (EC50) of 8.34 nM.

The compound `C/C(=N\OCC(Oc1ccc(C)c(C)c1)c1cccc(Cl)c1)c1ccc(CNCCC(=O)O)cc1` (stereo not shown) [Compound 14, 3-[(4-{(1E)-N-[2-(3-chlorophenyl)-2-(3,4-dimethylphenoxy)ethoxy]ethanimidoyl}benzyl)amino]propanoic acid] came in with a concentration giving a half-maximal response (EC50) of 216 nM.

In turn, `C/C(=N\OCC(Oc1ccc(C)c(C)c1)c1cccc(Cl)c1)c1ccc(CNCCCP(=O)(O)O)cc1` (stereo not shown) [Compound 15, {3-[(4-{(1E)-N-[2-(3-chlorophenyl)-2-(3,4-dimethylphenoxy)ethoxy]ethanimidoyl}benzyl)amino]propyl}phosphonic acid] gave a 50% effective concentration (EC50) of 11.4 nM.
